Each block holds one molecule with its values, some of them ahead of it.
Tests used:
[1] = Inhibition of alpha-glucosidase (unknown origin) using PNP glycoside as substrate preincubated for 30 mins followed by substrate addition and measured after 1 min by spectrophotometric analysis; design: species or system Homo sapiens
[2] = Inhibition of alpha-glucosidase (unknown origin) using p-nitrophenyl-alpha-D-glucopyranoside as substrate preincubated for 20 mins followed by substrate addition and measured after 30 mins by UV-visible spectrophotometric analysis; design: species or system Homo sapiens
[3] = target: T1, Alpha-glucosidase (Saccharomyces cerevisiae S288c, UniProt P53341+P38158+P07265); test: Inhibition of Saccharomyces cerevisiae alpha-glucosidase using p-nitrophenyl-alpha-D-glucopyranoside as substrate preincubated for 10 mins followed by substrate addition and measured after 30 mins by spectrophotometric analysis; type: protein assay
[4] = target: T1, Alpha-glucosidase; test: Non-competitive inhibition of Saccharomyces cerevisiae alpha-glucosidase using p-nitrophenyl-alpha-D-glucopyranoside as substrate assessed as inhibition constant preincubated for 10 mins followed by substrate addition and measured after 30 mins by spectrophotometric analysis; type: protein assay
[5] = target: T1, Alpha-glucosidase; test: Inhibition of Saccharomyces cerevisiae alpha-glucosidase using p-nitrophenyl-alpha-D-glucopyranoside as substrate preincubated for 5 mins followed by substrate addition and measured after 5 mins by absorbance based analysis; type: protein assay
[6] = target: Alpha-glucosidase (Saccharomyces cerevisiae S288c) (UniProt P53341+P38158+P07265); test: Potency index, ratio of acarbose IC50 to test compound IC50 for inhibition of Saccharomyces cerevisiae alpha-glucosidase using p-nitrophenyl-alpha-D-glucopyranoside as substrate preincubated for 5 mins followed by substrate addition and measured after 5 mins by absorbance based analysis; type: protein assay; conditions: time 10.0 min
[7] = target: T1, Alpha-glucosidase; test: Inhibition of Saccharomyces cerevisiae alpha-glucosidase using p-nitrophenyl-alpha-D-glucopyranoside as substrate preincubated with compound followed by substrate addition and measured after 30 mins by absorbance based analysis; type: protein assay
[8] = target: T1, Alpha-glucosidase; test: Non-competitive inhibition of Saccharomyces cerevisiae alpha-glucosidase using p-nitrophenyl glucopyranoside as substrate assessed as inhibition constant preincubated for 15 mins followed by substrate addition and measured after 20 mins by spectrophotometric analysis; type: protein assay
[9] = target: T1, Alpha-glucosidase; test: Inhibition of Saccharomyces cerevisiae alpha-glucosidase using p-nitrophenyl glucopyranoside as substrate preincubated for 10 mins followed by substrate addition and measured after 20 mins by spectrophotometric analysis; type: protein assay
[10] = target: T1, Alpha-glucosidase; test: Inhibition of Saccharomyces cerevisiae alpha-glucosidase using p-nitrophenyl-alpha-D-glucopyranoside as substrate preincubated for 5 mins followed by substrate addition and measured after 30 mins by absorbance based microplate reader analysis; type: protein assay
[11] = target: T1, Alpha-glucosidase; test: Inhibition of Saccharomyces cerevisiae alpha-glucosidase using pNPG as substrate by spectroscopic analysis; type: protein assay
[12] = target: T1, Alpha-glucosidase; test: Competitive inhibition of Saccharomyces cerevisiae alpha-glucosidase using p-nitrophenyl glucopyranoside as substrate assessed as inhibition constant preincubated for 15 mins followed by substrate addition and measured after 20 mins by spectrophotometric analysis; type: protein assay
[13] = Inhibition of alpha-glucosidase (unknown origin); design: species or system Homo sapiens
[14] = Competitive inhibition of alpha-glucosidase (unknown origin) assessed as inhibition constant; design: species or system Homo sapiens
[15] = Inhibition of Saccharomyces cerevisiae alpha-glucosidase type I using p-nitrophenyl-alpha-D-glucopyranoside as substrate preincubated for 10 mins followed by substrate addition and measured after 30 mins by absorbance based analysis
[16] = tested on: Saccharomyces cerevisiae; test: Potency index, ratio of acarbose IC50 to test compound IC50 for inhibition of Saccharomyces cerevisiae alpha-glucosidase type I using p-nitrophenyl-alpha-D-glucopyranoside as substrate preincubated for 10 mins followed by substrate addition and measured after 30 mins by absorbance based analysis; conditions: time 40.0 min
[17] = target: T1, Alpha-glucosidase; test: Inhibition of Saccharomyces cerevisiae alpha-glucosidase using p-nitrophenyl-alpha-D-glucopyranoside as substrate preincubated for 15 mins followed by substrate addition and measured after 30 mins by multiplate reader analysis; type: protein assay
[18] = target: T1, Alpha-glucosidase; test: Non-competitive inhibition of Saccharomyces cerevisiae alpha-glucosidase using p-nitrophenyl-alpha-D-glucopyranoside as substrate assessed as inhibition constant preincubated for 15 mins followed by substrate addition and measured after 30 mins by multiplate reader analysis; type: protein assay
[19] = (§1) Mixed-type inhibition of alpha-glucosidase (unknown origin) using p-nitropheny-alpha-D-glucopyranoside as substrate assessed as inhibition constant by measuring intercept versus drug/substrate concentration preincubated for 5 mins followed by substrate addition and measured after 10 mins by absorbance based microplate reader analysis; design: species or system Homo sapiens
[20] = as §1, with “secondary plot of 1/V” for “intercept”, “drug” for “drug/substrate”; design: species or system Homo sapiens
[21] = Inhibition of alpha-glucosidase (unknown origin) using p-nitrophenyl-alpha-D-glucopyranoside as substrate preincubated for 5 mins followed by substrate addition and measured after 10 mins by absorbance based microplate reader analysis; design: species or system Homo sapiens
[22] = target: T1, Alpha-glucosidase; test: Competitive inhibition of Saccharomyces cerevisiae alpha-glucosidase using p-nitrophenyl-alpha-D-glucopyranoside as substrate assessed as inhibition constant preincubated for 10 mins followed by substrate addition and measured after 20 mins by absorbance based analysis; type: protein assay
[23] = target: T1, Alpha-glucosidase; test: Inhibition of Saccharomyces cerevisiae alpha-glucosidase using p-nitrophenyl-alpha-D-glucopyranoside as substrate preincubated for 10 mins followed by substrate addition and measured after 20 mins by absorbance based analysis; type: protein assay
[24] = Inhibition of rat intestinal alpha-glucosidase
[25] = Inhibition of rat intestinal alpha-glucosidase assessed as inhibition constant
[26] = species: Homo sapiens; test: Potency index, ratio of acarbose IC50 to test compound IC50 for inhibition of alpha-glucosidase (unknown origin) using p-nitrophenyl-alpha-D-glucopyranoside as substrate preincubated for 10 mins followed by substrate addition and measured after 20 mins by absorbance based analysis; conditions: time 30.0 min
[27] = Inhibition of alpha-glucosidase (unknown origin) using p-nitrophenyl-alpha-D-glucopyranoside as substrate preincubated for 10 mins followed by substrate addition and measured after 20 mins by absorbance based analysis; design: species or system Homo sapiens
[28] = species: Homo sapiens; test: Inhibition of alpha-glucosidase (unknown origin) relative to control; conditions: concentration not given here

IC50 [1]: 6.2 µM
Compound: C(=N\Nc1nc(-c2ccc(-c3ccccc3)cc2)cs1)/c1cccc2ccccc12

IC50 [2]: 30 µM
Compound: CCOC(=O)c1c(C)n(C2CC2)c2ccc(OCc3nnc(-c4ccc(O)cc4)[nH]3)cc12

IC50 [3]: 6.24 µM
Ki [4]: 6.86 µM
Compound: O=C(N/N=C/c1cc(Cl)cc(Cl)c1O)c1nc(-c2cc3ccccc3oc2=O)cs1

IC50 [5]: 1.26 µM
Ratio IC50 [6]: 30
Compound: O=c1cc(-c2cccc(OCc3cc(C(F)(F)F)ccc3C(F)(F)F)c2)oc2ccccc12

IC50 [7]: 2.1 µM
Compound: CC1=NN(c2ccc([N+](=O)[O-])cc2)C(=O)/C1=C/c1cn(-c2ccccc2)nc1-c1cc2cc(Br)ccc2oc1=O

Ki [8]: 28 µM
IC50 [9]: 15.7 µM
Compound: N#CC1=C(N)Oc2c(c(=O)[nH]c3c2ccc2ccccc23)C1c1ccc(Br)cc1 (stereo not given)

IC50 [10]: 5.8 µM
Compound: COc1cccc(NC(=O)Cn2nc3c(c2C)N(C)Sc2ccccc2-3)c1

IC50 [11]: 0.02847 µM
Compound: Brc1cccc(CSc2nnc(-c3ccc4nc(-c5ccccc5)c(-c5ccccc5)nc4c3)o2)c1

Ki [12]: 78 µM
IC50 [9]: 80.3 µM
Compound: O=C(Cn1cc(CNC(=O)c2c3ccccc3nc3ccccc23)nn1)Nc1cccc(Br)c1

IC50 [13]: 2.2 µM
Ki [14]: 5.1 µM
Compound: Cn1cnnc1SC(=O)c1ccc(-c2ccccc2Cl)o1

IC50 [15]: 19.3 µM
Ratio IC50 [16]: 1.98
Compound: Cc1nn(-c2ccc(Nc3cccc(Cl)c3)nn2)c(C)c1[N+](=O)[O-]

IC50 [17]: 22.1 µM
Ki [18]: 16.03 µM
Compound: Oc1ccc(Br)cc1-c1nc2cc(Cl)ccc2s1

Ki [19]: 156 µM
Ki [20]: 34 µM
IC50 [21]: 50 µM
Compound: O=C1CNC(=S)N1C(=O)c1cc([N+](=O)[O-])cc([N+](=O)[O-])c1

Ki [22]: 71 µM
IC50 [23]: 75.6 µM
Compound: Cc1ccc(NC(=O)Oc2ccc(-c3nc4ccccn4c3NC(C)(C)C)cc2)cc1

IC50 [24]: 5.8 µM
Ki [25]: 6.3 µM
Compound: N[C@H]1[C@H](O)[C@@H](O)[C@H](O)[C@@H](CO)[C@@H]1CCO

Ratio IC50 [26]: 30
IC50 [27]: 7.54 µM
Compound: N#CC(c1c[nH]c2ccc(Br)cc12)c1c[nH]c2ccc(Br)cc12

inhibition [28]: 94.5%
IC50 [13]: 29.8 µM
Compound: Cc1ccc(NS(=O)(=O)c2ccc(-n3nnc4ccccc4c3=O)cc2)cc1C

— ChEMBL document CHEMBL5360534, “Synthetic α-glucosidase inhibitors as promising anti-diabetic agents: Recent developments and future challenges” (Eur J Med Chem, 2023)
